# Legend:
# GSPT1 protein = biological target: T1, GSPT1 protein (Homo sapiens, UniProt P15170+Q96SW2); test: GSPT1 degradation assay (western blot) in HL-60 cells; type: cell-based; conditions: GSPT1 protein level, 2h incubation, western blot normalized to beta-Actin; for inhibition at 0.1 µM: 0.1 μM compound; for inhibition at 1 µM: 1 μM compound
# T1 construct: endogenous in cells; host or cells: HL-60 cells
# Protocol: HL-60 cells (4×10^^6 cells/well) were seeded in 6-well culture plate (Costar, 3516) and treated with a variety of concentrations of test compound. After 2h incubation, cells were collected and lysed. The protein concentration was determined by BCA protein assay kit from Thermo (23227). The GSPT1 protein level was determined by western blots, using GSPT1 polyclonal antibody. Proteins were loaded into each well of the pre-casting gels and subjected to electrophoretic separation by SDS-PAGE. The protein resolved by SDS-PAGE were transferred to PVDF, blocked by 5% skim milk and probed with anti-GSPT1 antibody (Proteintech, 10763-1-AP) or anti-β-actin antibody (CST, 3700S), using following standard western blotting procedure. Blots intensities were quantified using ImageJ software and the intensity of GSPT1 bands were normalized to beta-Actin bands, respectively. The GSPT1 degradation results were then calculated. Reported compound C84971 (see WO2021126974A1 and WO2021126973A1) was used as a reference.
# HL-60 cells = test: Cell viability assay (CellTiter-Glo); type: cell-based; conditions: Homo sapiens, 72 h incubation, 6-point serial dilution
# Protocol: HL-60 cells were seeded at a density of 7000 cells per well in 96-well culture plates (Corning 3903) with IMDM and treated with test compounds following a 6-point serial dilution. RPMI 1640 (0.1% DMSO) was used as control for each well. After 72 h incubation, cell viability was determined using the CellTiter-Glo assay kit (Promega, G9242) according to the manufacturer's instructions. The dose-response curves were determined and IC50 values were calculated using the GraphPad Prism software following a nonlinear regression method.
# T1 sequence (P15170 whole entry): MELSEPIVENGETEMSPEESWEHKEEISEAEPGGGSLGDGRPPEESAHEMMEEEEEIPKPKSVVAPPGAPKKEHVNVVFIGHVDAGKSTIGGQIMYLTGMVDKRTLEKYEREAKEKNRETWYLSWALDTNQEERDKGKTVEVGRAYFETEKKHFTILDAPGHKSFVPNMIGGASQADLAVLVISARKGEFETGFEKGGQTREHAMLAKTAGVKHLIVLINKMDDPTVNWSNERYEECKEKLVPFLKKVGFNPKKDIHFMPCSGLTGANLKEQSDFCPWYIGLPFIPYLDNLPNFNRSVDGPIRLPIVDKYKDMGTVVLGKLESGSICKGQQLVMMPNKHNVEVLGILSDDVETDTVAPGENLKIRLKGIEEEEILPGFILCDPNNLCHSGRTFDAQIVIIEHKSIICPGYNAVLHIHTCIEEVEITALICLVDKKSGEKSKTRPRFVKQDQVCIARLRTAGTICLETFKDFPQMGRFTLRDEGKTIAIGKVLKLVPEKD
# T1 sequence (Q96SW2 whole entry): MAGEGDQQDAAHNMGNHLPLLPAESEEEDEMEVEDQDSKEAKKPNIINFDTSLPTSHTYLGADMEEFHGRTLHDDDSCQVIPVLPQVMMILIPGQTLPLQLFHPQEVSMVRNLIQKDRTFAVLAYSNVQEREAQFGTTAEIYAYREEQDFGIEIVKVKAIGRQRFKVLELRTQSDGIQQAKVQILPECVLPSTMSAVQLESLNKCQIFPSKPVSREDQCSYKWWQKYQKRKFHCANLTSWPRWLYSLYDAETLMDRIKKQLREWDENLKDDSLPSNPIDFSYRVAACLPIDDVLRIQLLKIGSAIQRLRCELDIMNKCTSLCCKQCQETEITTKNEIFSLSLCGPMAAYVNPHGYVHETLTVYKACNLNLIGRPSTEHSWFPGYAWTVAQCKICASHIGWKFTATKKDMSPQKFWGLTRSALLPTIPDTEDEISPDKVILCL
# T1 sequence (Q16531 whole entry partner): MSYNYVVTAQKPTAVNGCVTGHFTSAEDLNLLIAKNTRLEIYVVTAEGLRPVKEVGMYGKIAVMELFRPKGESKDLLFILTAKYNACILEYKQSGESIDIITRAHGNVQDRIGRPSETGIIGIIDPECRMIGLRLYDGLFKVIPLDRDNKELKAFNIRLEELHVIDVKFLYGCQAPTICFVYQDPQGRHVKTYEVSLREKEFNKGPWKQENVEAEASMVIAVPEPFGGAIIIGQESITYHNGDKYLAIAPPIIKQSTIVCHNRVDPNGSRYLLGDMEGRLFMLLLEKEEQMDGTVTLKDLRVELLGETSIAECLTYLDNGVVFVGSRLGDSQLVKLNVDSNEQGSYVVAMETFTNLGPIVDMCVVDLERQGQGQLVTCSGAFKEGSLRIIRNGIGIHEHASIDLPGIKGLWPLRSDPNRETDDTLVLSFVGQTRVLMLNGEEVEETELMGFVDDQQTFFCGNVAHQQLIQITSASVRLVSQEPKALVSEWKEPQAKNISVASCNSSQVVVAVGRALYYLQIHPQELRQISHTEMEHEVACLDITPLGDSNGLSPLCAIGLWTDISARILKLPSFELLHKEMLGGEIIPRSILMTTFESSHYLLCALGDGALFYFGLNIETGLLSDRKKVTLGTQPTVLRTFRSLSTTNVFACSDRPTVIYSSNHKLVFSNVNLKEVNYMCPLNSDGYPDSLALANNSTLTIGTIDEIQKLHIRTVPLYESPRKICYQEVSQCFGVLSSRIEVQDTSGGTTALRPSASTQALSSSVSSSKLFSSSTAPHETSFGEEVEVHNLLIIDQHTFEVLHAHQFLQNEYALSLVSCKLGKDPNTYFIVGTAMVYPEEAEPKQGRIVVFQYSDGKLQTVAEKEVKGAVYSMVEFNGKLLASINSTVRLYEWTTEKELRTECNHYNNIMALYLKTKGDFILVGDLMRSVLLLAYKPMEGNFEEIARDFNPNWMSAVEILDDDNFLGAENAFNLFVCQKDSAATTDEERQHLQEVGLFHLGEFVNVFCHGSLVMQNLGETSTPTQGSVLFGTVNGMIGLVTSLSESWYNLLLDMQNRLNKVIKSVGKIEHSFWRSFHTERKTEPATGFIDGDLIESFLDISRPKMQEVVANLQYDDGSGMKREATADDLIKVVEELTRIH
SMILES,inhibition at 0.1 µM (GSPT1 protein),inhibition at 1 µM (GSPT1 protein),IC50 (HL-60 cells)
"O=C1CCC(N2C(=O)c3ccc(N4CCC(CN5CCCN(c6cccc(Br)c6)C5=O)CC4)cc3C2=O)C(=O)N1 (stereo not drawn) [Compound 9, 5-(4-((3-(3-bromophenyl)-2-oxotetrahydropyrimidin-1(2H)-yl)methyl)piperidin-1-yl)-2-(2,6-dioxopiperidin-3-yl)isoindoline-1,3-dione]",0%,15%,> 1000 nM
"O=C1CCC(N2C(=O)c3ccc(N4CCC(CN5CCCN(c6ccc7ncccc7c6)C5=O)CC4)cc3C2=O)C(=O)N1 (stereo not drawn) [Compound 11, 2-(2,6-dioxopiperidin-3-yl)-5-(4-((2-oxo-3-(quinolin-6-yl)tetrahydropyrimidin-1(2H)-yl)methyl)piperidin-1-yl)isoindoline-1,3-dione]",14%,< 5%,> 1000 nM
"O=C1CCC(N2C(=O)c3ccc(N4CC(CCN5CCN(c6ccccc6)C5=O)C4)cc3C2=O)C(=O)N1 (stereo not drawn) [Compound 12, 2-(2,6-dioxopiperidin-3-yl)-5-(3-(2-(2-oxo-3-phenylimidazolidin-1-yl)ethyl)azetidin-1-yl)isoindoline-1,3-dione]",0%,0%,> 1000 nM
"O=C1CCC(N2Cc3cc(N4CCC(CN5CCCN(c6ccccc6)C5=O)CC4)ccc3C2=O)C(=O)N1 (stereo not drawn) [Compound 19, 3-(1-oxo-5-(4-((2-oxo-3-phenyltetrahydropyrimidin-1(2H)-yl)methyl)piperidin-1-yl)isoindolin-2-yl)piperidine-2,6-dione]",15%,38%,> 1000 nM
"O=C1CCC(N2C(=O)c3ccc(N4CC(CCN5CCCN(c6cccc(-c7cnc8c(cnn8C8CC8)c7)c6)C5=O)C4)cc3C2=O)C(=O)N1 (stereo not drawn) [Compound 22, 5-(3-(2-(3-(3-(1-cyclopropyl-1H-pyrazolo[3,4-b]pyridin-5-yl)phenyl)-2-oxotetrahydropyrimidin-1(2H)-yl)ethyl)azetidin-1-yl)-2-(2,6-dioxopiperidin-3-yl)isoindoline-1,3-dione]",29%,29%,> 1000 nM
"O=C1CCC(N2C(=O)c3ccc(N4CC(CCN5CCCN(c6cccc(-c7cnc8ccccc8c7)c6)C5=O)C4)cc3C2=O)C(=O)N1 (stereo not drawn) [Compound 23, 2-(2,6-dioxopiperidin-3-yl)-5-(3-(2-(2-oxo-3-(3-(quinolin-3-yl)phenyl)tetrahydropyrimidin-1(2H)-yl)ethyl)azetidin-1-yl)isoindoline-1,3-dione]",33%,45%,> 1000 nM
"CCc1c[nH]c2ccc(-c3cccc(N4CCCN(CCC5CN(c6ccc7c(c6)C(=O)N(C6CCC(=O)NC6=O)C7=O)C5)C4=O)c3)nc12 (stereo not drawn) [Compound 27, 2-(2,6-dioxopiperidin-3-yl)-5-(3-{2-[3-(3-{3-ethyl-1H-pyrrolo[3,2-b]pyridin-5-yl}phenyl)-2-oxo-1,3-diazinan-1-yl]ethyl}azetidin-1-yl)isoindole-1,3-dione]",45%,70%,397 nM
"O=C1CCC(N2Cc3ccc(N4CCNC4=O)cc3C2=O)C(=O)N1 (stereo not drawn) [Compound C84971, reference compound]",0%,0%,> 5000 nM

# The next compounds have a lower IC50 (HL-60 cells) than those just listed; values first:
inhibition at 0.1 µM (GSPT1 protein),inhibition at 1 µM (GSPT1 protein),IC50 (HL-60 cells),SMILES
40%,45%,144 nM,"O=C1CCC(N2C(=O)c3ccc(N4CC(CCN5CCCN(c6cccc(Br)c6)C5=O)C4)cc3C2=O)C(=O)N1 (stereo not drawn) [Compound 10, 5-(3-(2-(3-(3-bromophenyl)-2-oxotetrahydropyrimidin-1(2H)-yl)ethyl)azetidin-1-yl)-2-(2,6-dioxopiperidin-3-yl)isoindoline-1,3-dione]"
30%,57%,290 nM,"O=C1CCC(N2C(=O)c3ccc(N4CCC(CN5CCCN(c6cccc(C7CC7)c6)C5=O)CC4)cc3C2=O)C(=O)N1 (stereo not drawn) [Compound 15, 5-(4-((3-(3-cyclopropylphenyl)-2-oxotetrahydropyrimidin-1(2H)-yl)methyl)piperidin-1-yl)-2-(2,6-dioxopiperidin-3-yl)isoindoline-1,3-dione]"
55%,57%,137 nM,"O=C1CCC(N2C(=O)c3ccc(N4CC(CCN5CCCN(c6cccc(-c7cnc8[nH]ncc8c7)c6)C5=O)C4)cc3C2=O)C(=O)N1 (stereo not drawn) [Compound 25, 2-(2,6-dioxopiperidin-3-yl)-5-(3-{2-[2-oxo-3-(3-{1H-pyrazolo[3,4-b]pyridin-5-yl}phenyl)-1,3-diazinan-1-yl]ethyl}azetidin-1-yl)isoindole-1,3-dione]"
63%,85%,78 nM,"CCc1c[nH]c2ccc(-c3cccc(N4CCCN(CCC5CN(c6ccc7c(c6)C(=O)N(C6CCC(=O)NC6=O)C7=O)C5)C4=O)c3)c(Cl)c12 (stereo not drawn) [Compound 26, 5-(3-(2-(3-(3-(4-chloro-3-ethyl-1H-indol-5-yl)phenyl)-2-oxotetrahydropyrimidin-1(2H)-yl)ethyl)azetidin-1-yl)-2-(2,6-dioxopiperidin-3-yl)isoindoline-1,3-dione]"
77%,78%,51 nM,"Nc1ccc(-c2cccc(N3CCCN(CC4CCN(c5ccc6c(c5)C(=O)N(C5CCC(=O)NC5=O)C6=O)CC4)C3=O)c2)c(Cl)n1 (stereo not drawn) [Compound 28, 5-[4-({3-[3-(6-amino-2-chloropyridin-3-yl)phenyl]-2-oxo-1,3-diazinan-1-yl}methyl)piperidin-1-yl]-2-(2,6-dioxopiperidin-3-yl)isoindole-1,3-dione]"
45%,47%,222 nM,"CCc1c(N)ccc(-c2cccc(N3CCCN(CC4CCN(c5ccc6c(c5)C(=O)N(C5CCC(=O)NC5=O)C6=O)CC4)C3=O)c2)c1Cl (stereo not drawn) [Compound 29, 5-(4-((3-(4′-amino-2′-chloro-3′-ethyl-[1,1′-biphenyl]-3-yl)-2-oxotetrahydropyrimidin-1(2H)-yl)methyl)piperidin-1-yl)-2-(2,6-dioxopiperidin-3-yl)isoindoline-1,3-dione]"
85%,> 95%,10 nM,"CCc1c[nH]c2ncc(-c3cccc(N4CCCN(CC5CCN(c6ccc7c(c6)C(=O)N(C6CCC(=O)NC6=O)C7=O)CC5)C4=O)c3)c(Cl)c12 (stereo not drawn) [Compound A, 5-(4-((3-(3-(4-chloro-3-ethyl-1H-pyrrolo[2,3-b]pyridin-5-yl)phenyl)-2-oxotetrahydropyrimidin-1(2H)-yl)methyl)piperidin-1-yl)-2-(2,6-dioxopiperidin-3-yl)isoindoline-1,3-dione]"
45%,75%,122 nM,"O=C1CCC(N2C(=O)c3cc(F)c(N4CCC(CCN5CCCN(c6cccc(-c7cnc8[nH]cc(C9CC9)c8c7Cl)c6)C5=O)CC4)cc3C2=O)C(=O)N1 (stereo not drawn) [Compound B, 5-(4-(2-(3-(3-(4-chloro-3-cyclopropyl-1H-pyrrolo[2,3-b]pyridin-5-yl)phenyl)-2-oxotetrahydropyrimidin-1(2H)-yl)ethyl)piperidin-1-yl)-2-(2,6-dioxopiperidin-3-yl)-6-fluoroisoindoline-1,3-dione]"
86%,95%,9.2 nM,"CCc1c[nH]c2ncc(-c3cccc(N4CCCN(CCC5CN(c6ccc7c(c6)C(=O)N(C6CCC(=O)NC6=O)C7=O)C5)C4=O)c3)c(Cl)c12 (stereo not drawn) [Compound F, 5-(3-(2-(3-(3-(4-chloro-3-ethyl-1H-pyrrolo[2,3-b]pyridin-5-yl)phenyl)-2-oxotetrahydropyrimidin-1(2H)-yl)ethyl)azetidin-1-yl)-2-(2,6-dioxopiperidin-3-yl)isoindoline-1,3-dione]"
